Experimental data published in PMC8330742, “New benzothieno[2,3-c]pyridines as non-steroidal CYP17 inhibitors: design, synthesis, anticancer screening, apoptosis induction, and in silico ADME profile studies” (Journal of Enzyme Inhibition and Medicinal Chemistry, 2021).

Assays:
HOP-62 = experiment: NCI-60 SRB screen; format: cell-based, human; settings: Homo sapiens; single dose 10^−5 M; HOP-62, Non-small cell lung carcinoma; read-out: Growth inhibition (%)
SW-620 = experiment: NCI-60 SRB screen; format: cell-based; settings: Homo sapiens; single dose 10^−5 M; SW-620, Colon cancer; read-out: Growth inhibition (%)
HOP-92 = experiment: NCI-60 SRB screen; format: cell-based, human; settings: Homo sapiens; single dose 10^−5 M; HOP-92, Non-small cell lung carcinoma; read-out: Growth inhibition (%)
NCI-H522 = experiment: NCI-60 SRB screen; format: cell-based, human; settings: Homo sapiens; single dose 10^−5 M; NCI-H522, Non-small cell lung carcinoma; read-out: Growth inhibition (%)
SF-295 = experiment: NCI-60 SRB screen; format: cell-based, human; settings: Homo sapiens; single dose 10^−5 M; SF-295, CNS cancer; read-out: Growth inhibition (%)
A549/ATCC = experiment: NCI-60 SRB screen; format: cell-based, human; settings: Homo sapiens, single dose 10^−5 M, Non-small cell lung carcinoma, read-out: Growth inhibition (%)
ACHN = experiment: NCI-60 SRB screen; format: cell-based; settings: Homo sapiens, single dose 10^−5 M, Renal cancer, read-out: Growth inhibition (%)
SK-MEL-5 = experiment: NCI-60 SRB screen; format: cell-based, human; settings: Homo sapiens; single dose 10^−5 M; SK-MEL-5, Melanoma; read-out: Growth inhibition (%)
COLO 205 = experiment: NCI-60 SRB screen; format: cell-based, human; settings: Homo sapiens; single dose 10^−5 M; COLO 205, Colon cancer; read-out: Growth inhibition (%)
OVCAR-8 = experiment: NCI-60 SRB screen; format: cell-based, human; settings: Homo sapiens; single dose 10^−5 M; OVCAR-8, Ovarian cancer; read-out: Growth inhibition (%)
[1] = system: panel of 60 cancer cell lines; experiment: NCI-60 SRB screen, mean or range over the panel; format: cell-based, human; settings: Homo sapiens; mean over the cell lines; single dose 10^−5 M; read-out: Mean growth inhibition (%)
SF-268 = experiment: NCI-60 SRB screen; format: cell-based, human; settings: Homo sapiens; single dose 10^−5 M; SF-268, CNS cancer; read-out: Growth inhibition (%)
K-562 = experiment: NCI-60 SRB screen; format: cell-based, human; settings: Homo sapiens, K562; single dose 10^−5 M; K-562, Leukaemia; read-out: Growth inhibition (%)
UACC-62 = experiment: NCI-60 SRB screen; format: cell-based, human; settings: Homo sapiens; single dose 10^−5 M; UACC-62, Melanoma; read-out: Growth inhibition (%)
M14 = experiment: NCI-60 SRB screen; format: cell-based, human; settings: Homo sapiens; single dose 10^−5 M; M14, Melanoma; read-out: Growth inhibition (%)
HL-60(TB) = experiment: NCI-60 SRB screen; format: cell-based, human; settings: Homo sapiens; single dose 10^−5 M; HL-60(TB), Leukaemia; read-out: Growth inhibition (%)
NCI-H322M = experiment: NCI-60 SRB screen; format: cell-based, human; settings: Homo sapiens, single dose 10^−5 M, Non-small cell lung carcinoma, read-out: Growth inhibition (%)
OVCAR-4 = experiment: NCI-60 SRB screen; format: cell-based, human; settings: Homo sapiens; single dose 10^−5 M; OVCAR-4, Ovarian cancer; read-out: Growth inhibition (%)
SK-OV-3 = experiment: NCI-60 SRB screen; format: cell-based, human; settings: Homo sapiens; single dose 10^−5 M; SK-OV-3, Ovarian cancer; read-out: Growth inhibition (%)
CAKI-1 = experiment: NCI-60 SRB screen; format: cell-based, human; settings: Homo sapiens; single dose 10^−5 M; CAKI-1, Renal cancer; read-out: Growth inhibition (%)
786-0 = experiment: NCI-60 SRB screen; format: cell-based; settings: Homo sapiens; single dose 10^−5 M; 786-0, Renal cancer; read-out: Growth inhibition (%)
LOX IMVI = experiment: NCI-60 SRB screen; format: cell-based, human; settings: Homo sapiens, single dose 10^−5 M, Melanoma, read-out: Growth inhibition (%)
RXF 393 = experiment: NCI-60 SRB screen; format: cell-based, human; settings: Homo sapiens; single dose 10^−5 M; RXF 393, Renal cancer; read-out: Growth inhibition (%)
HCT-15 = experiment: NCI-60 SRB screen; format: cell-based, human; settings: Homo sapiens; single dose 10^−5 M; HCT-15, Colon cancer; read-out: Growth inhibition (%)
EKVX = experiment: NCI-60 SRB screen; format: cell-based, human; settings: Homo sapiens, single dose 10^−5 M, Non-small cell lung carcinoma, read-out: Growth inhibition (%)
SK-MEL-28 = experiment: NCI-60 SRB screen; format: cell-based; settings: Homo sapiens; single dose 10^−5 M; SK-MEL-28, Melanoma; read-out: Growth inhibition (%)
NCI-H460 = experiment: NCI-60 SRB screen; format: cell-based, human; settings: Homo sapiens; single dose 10^−5 M; NCI-H460, Non-small cell lung carcinoma; read-out: Growth inhibition (%)
TK-10 = experiment: NCI-60 SRB screen; format: cell-based, human; settings: Homo sapiens; single dose 10^−5 M; TK-10, Renal cancer; read-out: Growth inhibition (%)
OVCAR-3 = experiment: NCI-60 SRB screen; format: cell-based, human; settings: Homo sapiens; single dose 10^−5 M; OVCAR-3, Ovarian cancer; read-out: Growth inhibition (%)
NCI-H23 = experiment: NCI-60 SRB screen; format: cell-based, human; settings: Homo sapiens; single dose 10^−5 M; NCI-H23, Non-small cell lung carcinoma; read-out: Growth inhibition (%)
NCI-H226 = experiment: NCI-60 SRB screen; format: cell-based, human; settings: Homo sapiens; single dose 10^−5 M; NCI-H226, Non-small cell lung carcinoma; read-out: Growth inhibition (%)
MOLT-4 = experiment: NCI-60 SRB screen; format: cell-based; settings: Homo sapiens; single dose 10^−5 M; MOLT-4, Leukaemia; read-out: Growth inhibition (%)
UACC-257 = experiment: NCI-60 SRB screen; format: cell-based, human; settings: Homo sapiens; single dose 10^−5 M; UACC-257, Melanoma; read-out: Growth inhibition (%)
UO-31 = experiment: NCI-60 SRB screen; format: cell-based, human; settings: Homo sapiens; single dose 10^−5 M; UO-31, Renal cancer; read-out: Growth inhibition (%)
NCI/ADR-RES = experiment: NCI-60 SRB screen; format: cell-based, human; settings: Homo sapiens, single dose 10^−5 M, Ovarian cancer, read-out: Growth inhibition (%)
IGROV1 = experiment: NCI-60 SRB screen; format: cell-based, human; settings: Homo sapiens, IGROV-1; single dose 10^−5 M; IGROV1, Ovarian cancer; read-out: Growth inhibition (%)
SR = experiment: NCI-60 SRB screen; format: cell-based; settings: Homo sapiens, single dose 10^−5 M, Leukaemia, read-out: Growth inhibition (%)
SN12C = experiment: NCI-60 SRB screen; format: cell-based, human; settings: Homo sapiens, SN12C; single dose 10^−5 M; SN 12 C, Renal cancer; read-out: Growth inhibition (%)
MDA-MB-435 = experiment: NCI-60 SRB screen; format: cell-based; settings: Homo sapiens, MDA-MB-435, read-out: Growth inhibition (%)
KM12 = experiment: NCI-60 SRB screen; format: cell-based, human; settings: Homo sapiens; single dose 10^−5 M; KM12, Colon cancer; read-out: Growth inhibition (%)
HCC-2998 = experiment: NCI-60 SRB screen; format: cell-based, human; settings: Homo sapiens; single dose 10^−5 M; HCC-2998, Colon cancer; read-out: Growth inhibition (%)
HCT-116 = experiment: NCI-60 SRB screen; format: cell-based, human; settings: Homo sapiens; single dose 10^−5 M; HCT-116, Colon cancer; read-out: Growth inhibition (%)
SK-MEL-2 = experiment: NCI-60 SRB screen; format: cell-based, human; settings: Homo sapiens; single dose 10^−5 M; SK-MEL-2, Melanoma; read-out: Growth inhibition (%)
HT-29 = experiment: NCI-60 SRB screen; format: cell-based; settings: Homo sapiens; single dose 10^−5 M; HT-29, Colon cancer; read-out: Growth inhibition (%)

Question: Which inhibition at 10 µM (HOP-62) does the source give for O=[N+]([O-])c1cccc(C2NC3=C(Nc4ccccc4N3)c3c2sc2c(F)cccc32)c1 (centres unmarked) [Compound 9, 9-Fluoro-7-(3-nitrophenyl)-5,6,7,13-tetrahydro[1]benzothieno[3′,2′:4,5]-pyrido[2,3-b]quinoxaline] here?
Answer: Its inhibition at 10 µM is 9.45%.

Question: And the inhibition at 10 µM (SW-620)?
Answer: Its inhibition at 10 µM is 2%.

Question: What about the inhibition at 10 µM (HOP-92) of the same molecule?
Answer: The inhibition at 10 µM was -1.53%.

Question: What about the inhibition at 10 µM (NCI-H522) of the same molecule?
Answer: The inhibition at 10 µM was 4.63%.

Question: And the inhibition at 10 µM (SF-295)?
Answer: The inhibition at 10 µM was -7.1%.

Question: And the inhibition at 10 µM (A549/ATCC)?
Answer: The inhibition at 10 µM was -2.98%.

Question: And the inhibition at 10 µM (ACHN)?
Answer: The inhibition at 10 µM was 15.5%.

Question: What about the inhibition at 10 µM (SK-MEL-5) of the same molecule?
Answer: Its inhibition at 10 µM is -22%.

Question: And the inhibition at 10 µM (COLO 205)?
Answer: Its inhibition at 10 µM is -17.1%.

Question: What about the inhibition at 10 µM (OVCAR-8) of the same molecule?
Answer: Its inhibition at 10 µM is -3.4%.

Question: And the inhibition at 10 µM [1]?
Answer: Its inhibition at 10 µM is 7.87%.

Question: What about the inhibition at 10 µM (SF-268) of the same molecule?
Answer: Its inhibition at 10 µM is 7.06%.

Question: What about the inhibition at 10 µM (K-562) of the same molecule?
Answer: Its inhibition at 10 µM is 16.6%.

Question: What about the inhibition at 10 µM (UACC-62) of the same molecule?
Answer: Its inhibition at 10 µM is 11.5%.

Question: What about the inhibition at 10 µM (M14) of the same molecule?
Answer: Its inhibition at 10 µM is 1.33%.

Question: And the inhibition at 10 µM (HL-60(TB))?
Answer: The inhibition at 10 µM was -3.65%.

Question: And the inhibition at 10 µM (NCI-H322M)?
Answer: Its inhibition at 10 µM is -1.56%.

Question: And the inhibition at 10 µM (OVCAR-4)?
Answer: Its inhibition at 10 µM is -2.74%.

Question: What about the inhibition at 10 µM (SK-OV-3) of the same molecule?
Answer: Its inhibition at 10 µM is -1.7%.

Question: What about the inhibition at 10 µM (CAKI-1) of the same molecule?
Answer: Its inhibition at 10 µM is 28.3%.

Question: What about the inhibition at 10 µM (786-0) of the same molecule?
Answer: The inhibition at 10 µM was -10.3%.

Question: What about the inhibition at 10 µM (LOX IMVI) of the same molecule?
Answer: Its inhibition at 10 µM is 3.13%.

Question: And the inhibition at 10 µM (RXF 393)?
Answer: Its inhibition at 10 µM is -15.3%.

Question: And the inhibition at 10 µM (HCT-15)?
Answer: Its inhibition at 10 µM is -4.08%.

Question: What about the inhibition at 10 µM (EKVX) of the same molecule?
Answer: The inhibition at 10 µM was 4.82%.

Question: What about the inhibition at 10 µM (SK-MEL-28) of the same molecule?
Answer: The inhibition at 10 µM was -7.98%.

Question: And the inhibition at 10 µM (NCI-H460)?
Answer: Its inhibition at 10 µM is 1.16%.

Question: And the inhibition at 10 µM (TK-10)?
Answer: The inhibition at 10 µM was -54.7%.

Question: And the inhibition at 10 µM (OVCAR-3)?
Answer: Its inhibition at 10 µM is -3.93%.

Question: And the inhibition at 10 µM (NCI-H23)?
Answer: The inhibition at 10 µM was 0.22%.

Question: And the inhibition at 10 µM (NCI-H226)?
Answer: Its inhibition at 10 µM is 10.4%.

Question: And the inhibition at 10 µM (MOLT-4)?
Answer: Its inhibition at 10 µM is -1.99%.

Question: What about the inhibition at 10 µM (UACC-257) of the same molecule?
Answer: The inhibition at 10 µM was -15.2%.

Question: What about the inhibition at 10 µM (UO-31) of the same molecule?
Answer: The inhibition at 10 µM was 36.1%.

Question: What about the inhibition at 10 µM (NCI/ADR-RES) of the same molecule?
Answer: Its inhibition at 10 µM is -6.5%.

Question: And the inhibition at 10 µM (IGROV1)?
Answer: Its inhibition at 10 µM is 24.2%.

Question: What about the inhibition at 10 µM (SR) of the same molecule?
Answer: The inhibition at 10 µM was 16.5%.

Question: What about the inhibition at 10 µM (SN12C) of the same molecule?
Answer: The inhibition at 10 µM was 1.71%.

Question: What about the inhibition at 10 µM (MDA-MB-435) of the same molecule?
Answer: Its inhibition at 10 µM is -7%.

Question: And the inhibition at 10 µM (KM12)?
Answer: The inhibition at 10 µM was -0.46%.

Question: And the inhibition at 10 µM (HCC-2998)?
Answer: The inhibition at 10 µM was -17.5%.

Question: And the inhibition at 10 µM (HCT-116)?
Answer: Its inhibition at 10 µM is -1.05%.

Question: What about the inhibition at 10 µM (SK-MEL-2) of the same molecule?
Answer: The inhibition at 10 µM was 3.87%.

Question: What about the inhibition at 10 µM (HT-29) of the same molecule?
Answer: The inhibition at 10 µM was -5.27%.
